Assay results: ChEMBL document CHEMBL1201862, “PubChem BioAssay data set” (2004)
Activity calls are given as the source filed them.

Tests used:
Protein skinhead-1 = biological target: T1, Protein skinhead-1 (Caenorhabditis elegans, UniProt P34707); format: functional
T1 sequence (P34707 whole entry): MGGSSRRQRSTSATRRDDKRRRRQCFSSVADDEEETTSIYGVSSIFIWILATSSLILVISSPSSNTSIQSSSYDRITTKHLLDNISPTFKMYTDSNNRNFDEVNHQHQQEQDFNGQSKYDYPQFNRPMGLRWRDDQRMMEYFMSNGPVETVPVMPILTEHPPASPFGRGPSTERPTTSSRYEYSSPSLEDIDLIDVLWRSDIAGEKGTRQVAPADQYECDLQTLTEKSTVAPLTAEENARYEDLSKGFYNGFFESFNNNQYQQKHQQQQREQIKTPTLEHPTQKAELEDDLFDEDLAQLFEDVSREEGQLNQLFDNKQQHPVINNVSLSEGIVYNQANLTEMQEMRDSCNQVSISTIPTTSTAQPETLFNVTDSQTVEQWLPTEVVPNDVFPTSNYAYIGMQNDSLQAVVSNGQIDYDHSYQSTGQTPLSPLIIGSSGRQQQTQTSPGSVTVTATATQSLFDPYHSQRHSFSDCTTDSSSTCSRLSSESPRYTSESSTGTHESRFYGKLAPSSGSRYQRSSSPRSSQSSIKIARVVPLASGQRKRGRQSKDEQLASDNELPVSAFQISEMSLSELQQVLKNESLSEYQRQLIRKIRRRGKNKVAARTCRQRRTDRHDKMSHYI

[1] = biological target: T2, Heat shock factor protein 1 (Mus musculus, UniProt P38532); assay: enhancement of HSF1-driven luciferase signal – cell-based, NIH3T3, luminescence, dose retest, confirmation (AID 435004); format: functional;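 also: stress induced by proteasome inhibitor MG132 added 30 min after compound; luciferase reporter driven by HSF1 response element in NIH3T3 cells; actives raise luminescence as potentiators of the MG132 stress response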
T2 sequence (P38532 whole entry): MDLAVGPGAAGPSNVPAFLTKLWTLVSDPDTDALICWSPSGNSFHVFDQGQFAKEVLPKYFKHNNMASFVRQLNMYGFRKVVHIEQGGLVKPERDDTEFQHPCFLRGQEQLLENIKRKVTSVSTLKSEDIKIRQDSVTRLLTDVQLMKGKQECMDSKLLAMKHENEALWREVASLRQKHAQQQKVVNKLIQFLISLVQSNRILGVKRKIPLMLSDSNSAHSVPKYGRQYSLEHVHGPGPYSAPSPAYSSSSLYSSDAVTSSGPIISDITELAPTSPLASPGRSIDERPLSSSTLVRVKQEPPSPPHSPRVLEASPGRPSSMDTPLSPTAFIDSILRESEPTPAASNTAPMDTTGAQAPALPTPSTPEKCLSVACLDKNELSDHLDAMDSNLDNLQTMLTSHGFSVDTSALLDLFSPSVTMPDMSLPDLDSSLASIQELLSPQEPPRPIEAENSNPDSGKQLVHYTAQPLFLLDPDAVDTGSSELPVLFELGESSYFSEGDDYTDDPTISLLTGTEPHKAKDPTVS

[2] = viability of uninfected HEp-2 cells – cell-based, HTS, cytotoxicity control for RSV inhibitor project, dose response (AID 2410); format: functional; details: human respiratory syncytial virus
[3] = biological target: T3, Polyadenylate-binding protein 1 (Homo sapiens, UniProt P11940); assay: MLLE binding blockers, Cy5 peptide tracer – biochemical, fluorescence polarization, Cy5-PAM2 peptide, secondary, miRNA deadenylation inhibitor project, dose response (AID 602260); format: functional; details: read-out: IC50_Mean
T3 sequence (P11940 whole entry, the tested form may be a part): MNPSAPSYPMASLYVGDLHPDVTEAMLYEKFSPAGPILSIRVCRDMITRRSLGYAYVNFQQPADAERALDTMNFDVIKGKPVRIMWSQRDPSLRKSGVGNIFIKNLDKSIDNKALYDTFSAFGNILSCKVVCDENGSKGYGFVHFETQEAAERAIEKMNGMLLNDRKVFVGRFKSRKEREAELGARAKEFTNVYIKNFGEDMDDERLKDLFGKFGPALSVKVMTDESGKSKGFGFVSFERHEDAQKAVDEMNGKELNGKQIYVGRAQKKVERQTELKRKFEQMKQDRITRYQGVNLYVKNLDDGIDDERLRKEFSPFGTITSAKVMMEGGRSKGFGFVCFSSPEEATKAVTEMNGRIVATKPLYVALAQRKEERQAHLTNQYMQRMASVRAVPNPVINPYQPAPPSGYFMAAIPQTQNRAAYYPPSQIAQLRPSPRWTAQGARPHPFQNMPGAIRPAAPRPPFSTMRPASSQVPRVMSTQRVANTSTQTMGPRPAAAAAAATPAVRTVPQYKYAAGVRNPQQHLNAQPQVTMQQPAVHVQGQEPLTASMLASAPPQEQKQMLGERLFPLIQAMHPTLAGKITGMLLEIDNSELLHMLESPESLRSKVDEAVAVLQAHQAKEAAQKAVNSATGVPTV

[4] = biological target: T3, Polyadenylate-binding protein 1; assay: MLLE domain peptide-binding blockers, IC50 – biochemical, fluorescence polarization, FITC-PAM2 peptide, dose response (AID 602259); format: functional; details: read-out: IC50_Mean
[5] = NIH-3T3 fibroblast cytotoxicity, dose response, cytotoxicity control, cell-based, fluorescence, Alamar Blue, secondary assay (AID 2327); format: functional;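 also: NIH-3T3 mouse fibroblasts cultured with fluconazole at 8 µg/mL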
[6] = fluconazole-exposed Candida albicans growth modulators – fluorescence, retest, confirmation (AID 2467); format: functional, cell-based
INS1 = assay: INS-1E survival protection against cytokine death – cell-based, luminescence, retest, dose response (AID 449756); format: functional; details: Rattus norvegicus, INS1;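 also: cell death triggered by IL-1 beta plus TNF-alpha plus IFN-gamma mixture; protective hits raise ATP signal compared with cytokine alone wells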
Large T antigen = Large T antigen (Simian virus 40, UniProt P03070); format: functional, Betapolyomavirus macacae;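 also: Confirmatory-stage PubChem screen for compounds that inhibit SV40 T antigen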
Large T antigen, sequence (P03070 whole entry): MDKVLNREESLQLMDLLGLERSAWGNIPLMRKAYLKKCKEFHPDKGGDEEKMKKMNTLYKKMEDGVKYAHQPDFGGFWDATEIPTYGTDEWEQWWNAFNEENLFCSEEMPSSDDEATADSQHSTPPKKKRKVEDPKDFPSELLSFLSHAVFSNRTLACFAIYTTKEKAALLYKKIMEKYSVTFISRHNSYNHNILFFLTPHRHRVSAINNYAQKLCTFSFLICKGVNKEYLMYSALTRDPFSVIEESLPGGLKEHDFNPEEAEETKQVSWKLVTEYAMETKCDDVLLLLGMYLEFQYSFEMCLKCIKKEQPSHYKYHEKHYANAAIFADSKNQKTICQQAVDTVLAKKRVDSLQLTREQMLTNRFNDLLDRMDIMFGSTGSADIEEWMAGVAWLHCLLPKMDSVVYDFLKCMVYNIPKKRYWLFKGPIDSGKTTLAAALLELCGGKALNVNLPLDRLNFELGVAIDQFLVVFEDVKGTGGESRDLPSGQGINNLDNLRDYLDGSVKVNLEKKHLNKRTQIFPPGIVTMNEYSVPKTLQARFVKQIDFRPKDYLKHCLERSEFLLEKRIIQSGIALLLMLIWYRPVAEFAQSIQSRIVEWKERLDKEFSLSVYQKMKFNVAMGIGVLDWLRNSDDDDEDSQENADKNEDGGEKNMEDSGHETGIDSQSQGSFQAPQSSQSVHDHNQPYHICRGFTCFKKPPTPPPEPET

[7] = biological target: T4, Rac GTPase-activating protein 1 (Homo sapiens, UniProt Q9H0H5); assay: blockers of MgcRacGAP-driven Rac1 GTP hydrolysis – biochemical, ADP Hunter fluorescence, primary and confirmatory, confirmation (AID 624330); format: functional
T4 sequence (Q9H0H5 whole entry): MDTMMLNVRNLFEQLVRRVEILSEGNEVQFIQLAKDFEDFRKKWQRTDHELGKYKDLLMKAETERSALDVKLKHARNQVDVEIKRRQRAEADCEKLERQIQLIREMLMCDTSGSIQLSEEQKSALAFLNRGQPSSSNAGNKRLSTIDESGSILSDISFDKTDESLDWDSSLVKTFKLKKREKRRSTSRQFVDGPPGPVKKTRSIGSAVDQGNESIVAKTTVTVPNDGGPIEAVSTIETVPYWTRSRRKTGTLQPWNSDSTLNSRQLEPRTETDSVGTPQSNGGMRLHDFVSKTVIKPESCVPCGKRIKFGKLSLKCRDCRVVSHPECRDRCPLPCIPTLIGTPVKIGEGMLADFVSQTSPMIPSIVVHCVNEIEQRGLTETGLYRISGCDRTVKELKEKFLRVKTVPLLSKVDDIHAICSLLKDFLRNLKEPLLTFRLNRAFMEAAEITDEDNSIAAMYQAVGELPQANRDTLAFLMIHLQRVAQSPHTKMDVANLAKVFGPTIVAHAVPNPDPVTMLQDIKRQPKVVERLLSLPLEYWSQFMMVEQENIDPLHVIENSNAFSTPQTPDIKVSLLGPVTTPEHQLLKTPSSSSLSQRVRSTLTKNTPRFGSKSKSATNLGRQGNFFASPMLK

[8] = biological target: T5, Corticotropin-releasing factor receptor 2/Corticotropin-releasing factor-binding protein (Homo sapiens, UniProt P24387+Q13324); assay: Dose Response confirmation of uHTS hits for small molecule antagonists of the CRF-binding protein and CRF-R2 receptor complex.; format: functional; details: read-out: IC50_Mean
T5 sequence (Q13324 whole entry): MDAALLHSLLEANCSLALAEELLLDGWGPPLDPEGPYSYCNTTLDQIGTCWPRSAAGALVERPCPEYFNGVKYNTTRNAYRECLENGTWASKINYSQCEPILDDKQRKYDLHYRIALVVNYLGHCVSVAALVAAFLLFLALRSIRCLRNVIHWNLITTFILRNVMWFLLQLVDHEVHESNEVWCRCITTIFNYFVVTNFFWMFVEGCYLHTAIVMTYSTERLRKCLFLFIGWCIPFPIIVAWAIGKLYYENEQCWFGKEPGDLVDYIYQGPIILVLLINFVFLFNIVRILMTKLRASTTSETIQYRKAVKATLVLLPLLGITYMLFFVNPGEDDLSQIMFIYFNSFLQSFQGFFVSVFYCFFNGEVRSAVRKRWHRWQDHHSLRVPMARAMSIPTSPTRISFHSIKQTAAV
T5 sequence (P24387 whole entry): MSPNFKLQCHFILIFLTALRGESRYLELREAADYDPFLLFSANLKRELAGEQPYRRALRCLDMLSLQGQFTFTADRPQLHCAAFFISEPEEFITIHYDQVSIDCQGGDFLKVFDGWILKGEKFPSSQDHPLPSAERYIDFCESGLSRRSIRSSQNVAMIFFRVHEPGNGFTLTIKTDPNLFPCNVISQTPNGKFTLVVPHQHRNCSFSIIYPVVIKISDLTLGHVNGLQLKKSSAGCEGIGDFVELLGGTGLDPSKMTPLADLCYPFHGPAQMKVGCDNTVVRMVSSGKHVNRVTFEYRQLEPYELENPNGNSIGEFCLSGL

[9] = biological target: T5, Corticotropin-releasing factor receptor 2/Corticotropin-releasing factor-binding protein; assay: activators of CRF receptor 2 with binding protein – uHTS hits, confirmation (AID 602473); format: functional; details: read-out: EC50_Mean

Row | SMILES | IC50 (Protein skinhead-1) | IC50 [3] | IC50 [4] | further results
1 | O=C(Nc1ccc2oc(-c3cccnc3)nc2c1)c1ccc(Br)o1 | > 100 µM (inactive) | – | – | –
2 | O=C(c1ccc(S(=O)(=O)NCc2ccco2)cc1)N1CCN(c2ccc(F)cc2)CC1 | > 100 µM (inactive) | – | – | –
3 | NC(=Nc1ccccc1C(F)(F)F)Nc1nc(O)c2c(n1)CCC2 | – | – | – | EC50 [1]: > 260 µM (inactive); CC50 [2]: 46.9 µM (active)
4 | COc1ccc2ccc(O)c(CN3CC=C(c4ccccc4)CC3)c2c1 | – | – | – | EC50 [1]: 34.6 µM (active)
5 | COc1ccc(Cl)cc1NC(=O)CN(C(=O)c1ccco1)C1CCCCC1 | – | > 66 µM (inactive) | > 66 µM (inactive) | –
6 | CCOc1ccc2c(c1)n([O-])c1c([n+]2=O)CCCC1 | – | > 66 µM (inactive) | > 66 µM (inactive) | –
7 | CNc1nc(-c2ccccc2)cc(C)c1S(C)(=O)=O | – | – | – | EC50 [1]: > 260 µM (inactive)
8 | COc1ccc(S(=O)(=O)Nc2ccc(S(=O)(=O)Nc3ccc(F)cc3)cc2)cc1C | > 100 µM (inactive) | – | – | –
9 | CC1CC2(CCCCC2)Nc2ccc3ccccc3c21 (configuration not stated) | – | – | – | EC50 [1]: > 260 µM (inactive)
10 | Cc1ccc(-[n+]2c(-c3ccccc3)cn3c2CCC3)cc1 | – | – | – | EC50 [5]: > 150 µM (inconclusive); EC50 [6]: > 38 µM (not active); AC50 (INS1): 2.83 µM (active)
11 | CC(=O)O[C@H]1[C@@H](O)[C@H](O)[C@H](Oc2c(O)c(C)c3c4c2[C@@H](C)CC[C@@H]4[C@@H](C)C[C@@H]3C=C(C)C)O[C@H]1C | > 100 µM (inactive) | – | – | –
12 | Oc1ccc(/N=C/c2cc(Br)c(N3CCOCC3)o2)cc1 | – | – | – | IC50 (Large T antigen): 21.7 µM (active); IC50 [7]: 42 µM (active)
13 | Cc1cs/c(=N\N=C\c2ccc(O)cc2)n1Cc1ccco1 | – | – | – | IC50 (Large T antigen): 25.5 µM (active); IC50 [7]: 28.8 µM (active)

Second part, led by results:

Row | IC50 (Protein skinhead-1) | IC50 [3] | IC50 [4] | SMILES | further results
14 | 42.5 µM (active) | – | – | CC1=NN(c2ccccc2)C(=O)/C1=C\C=C1\N(C)c2ccccc2C1(C)C | –
15 | – | > 66 µM (inactive) | > 66 µM (inactive) | COC(=O)/C=C1\SC(NC(=O)c2ccc(C)cc2)=NC1=O | –
16 | – | > 66 µM (inactive) | > 66 µM (inactive) | O=Cc1ccc(OC(=O)c2cc(Cl)nc3ccccc23)cc1 | –
17 | – | > 66 µM (inactive) | > 66 µM (inactive) | Cc1ccc(CNC(=O)CSc2nccn(-c3ccc(C)c(F)c3)c2=O)cc1 | –
18 | – | > 66 µM (inactive) | > 66 µM (inactive) | Cn1nnc(NC(=S)NC(=O)c2ccc3ccccc3c2)n1 | –
19 | 16.2 µM (active) | – | – | O=c1cc(-c2ccc(F)cc2)oc2ccccc12 | IC50 [8]: > 47.1 µM (inactive); EC50 [9]: > 53 µM (inactive)
